We go through nine molecules from ChEMBL document CHEMBL1781971, “Discovery of 5-(arenethynyl) hetero-monocyclic derivatives as potent inhibitors of BCR-ABL including the T315I gatekeeper mutant” (Bioorg Med Chem Lett, 2011).

In general, IC50 refers to the point on the concentration scale where inhibition reaches its midpoint. Read a high IC50 as a need for much substance.

The first assay concerns the target Tyrosine-protein kinase ABL1 (Homo sapiens, UniProt P00519).
Assay: not given
Details: not given
`Cc1ccc(C(=O)Nc2ccc(CN3CCN(C)CC3)c(C(F)(F)F)c2)cc1C#Cc1cnc[nH]1`: the IC50 stood at 1000 nM.

`Cc1ccc(C(=O)Nc2ccc(CN3CCN(C)CC3)c(C(F)(F)F)c2)cc1C#Cc1cncn1C` gave an IC50 of 129 nM.

With `Cc1ccc(C(=O)Nc2ccc(CN3CCN(C)CC3)c(C(F)(F)F)c2)cc1C#Cc1cnc(C)n1C`, the midpoint of inhibition, the IC50, lay at 72.6 nM. Compared with the last molecule, the IC50 is about 1.8-fold lower.

In turn, `CNC(=O)c1ncc(C#Cc2cc(C(=O)Nc3ccc(CN4CCN(C)CC4)c(C(F)(F)F)c3)ccc2C)n1C` returned an IC50 of 17.4 nM.

`Cc1ccc(C(=O)Nc2ccc(CN3CCN(C)CC3)c(C(F)(F)F)c2)cc1C#Cc1cnc(C(=O)NCCO)n1C`: it took 55 nM to reach half-maximal inhibition (IC50). Against the preceding molecule, the IC50 is about 3.2-fold higher.

The molecule `COCCN1CCN(Cc2ccc(NC(=O)c3ccc(C)c(C#Cc4cnc(C(N)=O)n4C)c3)cc2C(F)(F)F)CC1` returned an IC50 of 4.8 nM.

In turn, `Cc1ccc(C(=O)Nc2ccc(CN3CCN(CC(=O)O)CC3)c(C(F)(F)F)c2)cc1C#Cc1cnc(C(N)=O)n1C` returned an IC50 of 4.3 nM.

The molecule `Cc1ccc(C(=O)Nc2ccc(CN3CCN(C)CC3)c(C(F)(F)F)c2)cc1C#Cc1cnc(N)s1` showed a half-maximal inhibitory concentration (IC50) of 29 nM.

Consider `CC(=O)Nc1ncc(C#Cc2cc(C(=O)Nc3ccc(CN4CCN(C)CC4)c(C(F)(F)F)c3)ccc2C)s1`, for which half-maximal inhibition (IC50) was put at 12 nM.

For a further assay, the target named is Tyrosine-protein kinase ABL1 (Homo sapiens, UniProt P00519, T315I).
Assay: not given
Details: not given
In turn, `Cc1ccc(C(=O)Nc2ccc(CN3CCN(C)CC3)c(C(F)(F)F)c2)cc1C#Cc1cnc[nH]1` displayed an IC50 of 3720 nM. This counts as single-digit micromolar.

`Cc1ccc(C(=O)Nc2ccc(CN3CCN(C)CC3)c(C(F)(F)F)c2)cc1C#Cc1cncn1C` registered an IC50 of 550 nM.

For the molecule `Cc1ccc(C(=O)Nc2ccc(CN3CCN(C)CC3)c(C(F)(F)F)c2)cc1C#Cc1cnc(C)n1C`, the IC50 is 362 nM.

On to `CNC(=O)c1ncc(C#Cc2cc(C(=O)Nc3ccc(CN4CCN(C)CC4)c(C(F)(F)F)c3)ccc2C)n1C`, for which the IC50 is 18 nM.

`Cc1ccc(C(=O)Nc2ccc(CN3CCN(C)CC3)c(C(F)(F)F)c2)cc1C#Cc1cnc(C(=O)NCCO)n1C`: the IC50 came to 301 nM.

For the molecule `COCCN1CCN(Cc2ccc(NC(=O)c3ccc(C)c(C#Cc4cnc(C(N)=O)n4C)c3)cc2C(F)(F)F)CC1`, the IC50 was found to be 140 nM.

For the molecule `Cc1ccc(C(=O)Nc2ccc(CN3CCN(CC(=O)O)CC3)c(C(F)(F)F)c2)cc1C#Cc1cnc(C(N)=O)n1C`, the IC50 was determined as 106 nM.

In turn, `Cc1ccc(C(=O)Nc2ccc(CN3CCN(C)CC3)c(C(F)(F)F)c2)cc1C#Cc1cnc(N)s1` registered an IC50 of 139 nM.

Regarding `CC(=O)Nc1ncc(C#Cc2cc(C(=O)Nc3ccc(CN4CCN(C)CC4)c(C(F)(F)F)c3)ccc2C)s1`, the IC50 came to 27 nM.

Tested on in a further assay: not listed separately
The assay is described as follows: cells. The settings on record: Mus musculus, BaF3.
Description: Antiproliferative activity against mouse BA/F3 cells expressing wild type BCR-ABL
As for `Cc1ccc(C(=O)Nc2ccc(CN3CCN(C)CC3)c(C(F)(F)F)c2)cc1C#Cc1cnc[nH]1`, it took 730 nM to reach half-maximal inhibition (IC50).

In the case of `Cc1ccc(C(=O)Nc2ccc(CN3CCN(C)CC3)c(C(F)(F)F)c2)cc1C#Cc1cncn1C`, the IC50 amounted to 43 nM.

For `Cc1ccc(C(=O)Nc2ccc(CN3CCN(C)CC3)c(C(F)(F)F)c2)cc1C#Cc1cnc(C)n1C`, half-maximal inhibition (IC50) required 8.5 nM. Against the preceding molecule, the IC50 is about 5.1-fold lower.

Consider `CNC(=O)c1ncc(C#Cc2cc(C(=O)Nc3ccc(CN4CCN(C)CC4)c(C(F)(F)F)c3)ccc2C)n1C`, for which 1.7 nM corresponded to half-maximal inhibition (IC50). This IC50 lies about 5-fold lower than the previous one.

With `Cc1ccc(C(=O)Nc2ccc(CN3CCN(C)CC3)c(C(F)(F)F)c2)cc1C#Cc1cnc(C(=O)NCCO)n1C`, the IC50 worked out at 3.9 nM.

On to `COCCN1CCN(Cc2ccc(NC(=O)c3ccc(C)c(C#Cc4cnc(C(N)=O)n4C)c3)cc2C(F)(F)F)CC1`, for which the IC50 stood at 0.65 nM.

For the molecule `Cc1ccc(C(=O)Nc2ccc(CN3CCN(CC(=O)O)CC3)c(C(F)(F)F)c2)cc1C#Cc1cnc(C(N)=O)n1C`, it took 7.6 nM to reach half-maximal inhibition (IC50).

In turn, `Cc1ccc(C(=O)Nc2ccc(CN3CCN(C)CC3)c(C(F)(F)F)c2)cc1C#Cc1cnc(N)s1` showed an IC50 of 2.8 nM.

For `CC(=O)Nc1ncc(C#Cc2cc(C(=O)Nc3ccc(CN4CCN(C)CC4)c(C(F)(F)F)c3)ccc2C)s1`, inhibition was half-maximal at 0.67 nM (IC50).

Tested on in a further assay: not listed separately
The assay is described as follows: cells. Conditions: Mus musculus, BaF3. This is another data set of the same source.
Turning to `Cc1ccc(C(=O)Nc2ccc(CN3CCN(C)CC3)c(C(F)(F)F)c2)cc1C#Cc1cnc[nH]1`, it took 5740 nM to reach half-maximal inhibition (IC50). In other words, the single-digit micromolar range.

`Cc1ccc(C(=O)Nc2ccc(CN3CCN(C)CC3)c(C(F)(F)F)c2)cc1C#Cc1cncn1C` had an IC50 of 709 nM.

On to `Cc1ccc(C(=O)Nc2ccc(CN3CCN(C)CC3)c(C(F)(F)F)c2)cc1C#Cc1cnc(C)n1C`, for which the IC50 is 69 nM.

Take `CNC(=O)c1ncc(C#Cc2cc(C(=O)Nc3ccc(CN4CCN(C)CC4)c(C(F)(F)F)c3)ccc2C)n1C`: the IC50 is 4 nM.

For `Cc1ccc(C(=O)Nc2ccc(CN3CCN(C)CC3)c(C(F)(F)F)c2)cc1C#Cc1cnc(C(=O)NCCO)n1C`, the IC50 was 64 nM.

`COCCN1CCN(Cc2ccc(NC(=O)c3ccc(C)c(C#Cc4cnc(C(N)=O)n4C)c3)cc2C(F)(F)F)CC1` showed an IC50 of 10.8 nM.

Turning to `Cc1ccc(C(=O)Nc2ccc(CN3CCN(CC(=O)O)CC3)c(C(F)(F)F)c2)cc1C#Cc1cnc(C(N)=O)n1C`, the midpoint of inhibition, the IC50, lay at 64 nM.

The molecule `Cc1ccc(C(=O)Nc2ccc(CN3CCN(C)CC3)c(C(F)(F)F)c2)cc1C#Cc1cnc(N)s1` returned an IC50 of 17.5 nM.

In turn, `CC(=O)Nc1ncc(C#Cc2cc(C(=O)Nc3ccc(CN4CCN(C)CC4)c(C(F)(F)F)c3)ccc2C)s1` registered an IC50 of 5.5 nM.

Tested on in a further assay: not listed separately
The assay is described as follows: cells. Conditions: Mus musculus, BaF3. The source holds these as a separate data set.
Description: Antiproliferative activity against BCR-ABL-negative parental mouse BA/F3 cells
`Cc1ccc(C(=O)Nc2ccc(CN3CCN(C)CC3)c(C(F)(F)F)c2)cc1C#Cc1cnc[nH]1` came in with an IC50 of 6550 nM.

Turning to `Cc1ccc(C(=O)Nc2ccc(CN3CCN(C)CC3)c(C(F)(F)F)c2)cc1C#Cc1cncn1C`, 5650 nM corresponded to half-maximal inhibition (IC50).

For the molecule `Cc1ccc(C(=O)Nc2ccc(CN3CCN(C)CC3)c(C(F)(F)F)c2)cc1C#Cc1cnc(C)n1C`, the IC50 came out at 1790 nM.

Molecule `CNC(=O)c1ncc(C#Cc2cc(C(=O)Nc3ccc(CN4CCN(C)CC4)c(C(F)(F)F)c3)ccc2C)n1C` yielded an IC50 of 1580 nM.

Consider `Cc1ccc(C(=O)Nc2ccc(CN3CCN(C)CC3)c(C(F)(F)F)c2)cc1C#Cc1cnc(C(=O)NCCO)n1C`, for which the IC50 came to 1600 nM.

As for `COCCN1CCN(Cc2ccc(NC(=O)c3ccc(C)c(C#Cc4cnc(C(N)=O)n4C)c3)cc2C(F)(F)F)CC1`, the IC50 came out at 2380 nM.

For the molecule `Cc1ccc(C(=O)Nc2ccc(CN3CCN(CC(=O)O)CC3)c(C(F)(F)F)c2)cc1C#Cc1cnc(C(N)=O)n1C`, the midpoint of inhibition, the IC50, lay at 10000 nM.

Take `Cc1ccc(C(=O)Nc2ccc(CN3CCN(C)CC3)c(C(F)(F)F)c2)cc1C#Cc1cnc(N)s1`: half-maximal inhibition (IC50) was put at 1270 nM.

As to `CC(=O)Nc1ncc(C#Cc2cc(C(=O)Nc3ccc(CN4CCN(C)CC4)c(C(F)(F)F)c3)ccc2C)s1`, inhibition was half-maximal at 97 nM (IC50).
